Measurements reported in PubChem BioAssay (NCI).
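Cells were grown in 96-well plates and exposed to each compound for 48 hours at five concentrations; endpoints were interpolated linearly between bracketing concentrations, or set to the highest concentration if not reached. TGI: concentration producing complete growth inhibition.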 Where a SMILES comes first, the peptide text is derived from it. [ ]: non-standard residue; d: D form. The star is where a group is joined. Phe(4-NO2) = N[CH](Cc1ccc([N+](=O)[O-])cc1)C(=O)O; Cbz = O=C(OCc1ccccc1)*

Assays:
Experiment in all cases: NCI tumour cell line growth inhibition, 48 h
MALME-3M melanoma = tested on: MALME-3M melanoma
PC-3 prostate = tested on: PC-3 prostate
OVCAR-3 ovarian = tested on: OVCAR-3 ovarian
OVCAR-4 ovarian = tested on: OVCAR-4 ovarian
786-0 renal = tested on: 786-0 renal
TK-10 renal = tested on: TK-10 renal
A549 NSCLC = tested on: A549 NSCLC
HS 578T breast = tested on: HS 578T breast
MDA-MB-435 = tested on: MDA-MB-435
SW-620 colon = tested on: SW-620 colon
NCI/ADR-RES ovarian = tested on: NCI/ADR-RES ovarian
SNB-75 CNS = tested on: SNB-75 CNS
HT29 colon = tested on: HT29 colon
UO-31 renal = tested on: UO-31 renal

## O=c1c(-c2c(-c3ccccc3)oc3ccc(Cl)cc3c2=O)c(-c2ccccc2)oc2ccc(Cl)cc12
MALME-3M melanoma
  TGI: > 100 µM
PC-3 prostate
  TGI: > 100 µM
OVCAR-3 ovarian
  TGI: > 100 µM
OVCAR-4 ovarian
  TGI: > 100 µM
786-0 renal
  TGI: > 100 µM
TK-10 renal
  TGI: > 100 µM
A549 NSCLC
  TGI: > 100 µM
HS 578T breast
  TGI: > 100 µM
MDA-MB-435
  TGI: > 100 µM
SW-620 colon
  TGI: > 100 µM
NCI/ADR-RES ovarian
  TGI: > 100 µM
SNB-75 CNS
  TGI: > 62.2 µM
HT29 colon
  TGI: > 100 µM

## CCN(CC)C(=S)SNc1ccc(S(N)(=O)=O)cc1
MALME-3M melanoma
  TGI: 97.3 µM
PC-3 prostate
  TGI: > 100 µM
UO-31 renal
  TGI: > 100 µM
OVCAR-4 ovarian
  TGI: > 100 µM
786-0 renal
  TGI: > 71 µM
TK-10 renal
  TGI: > 100 µM
A549 NSCLC
  TGI: > 100 µM
HS 578T breast
  TGI: > 100 µM
MDA-MB-435
  TGI: > 100 µM
SW-620 colon
  TGI: 19.3 µM
NCI/ADR-RES ovarian
  TGI: > 100 µM
SNB-75 CNS
  TGI: > 100 µM
HT29 colon
  TGI: > 54.6 µM

## C=C[C@]1(O)CCC[C@]2(C)C(=O)CCC12C (stereo partly specified)
MALME-3M melanoma
  TGI: > 100 µM
PC-3 prostate
  TGI: > 100 µM
OVCAR-3 ovarian
  TGI: > 100 µM
UO-31 renal
  TGI: > 100 µM
OVCAR-4 ovarian
  TGI: > 100 µM
786-0 renal
  TGI: > 100 µM
A549 NSCLC
  TGI: > 100 µM
HS 578T breast
  TGI: > 100 µM
MDA-MB-435
  TGI: > 100 µM
SW-620 colon
  TGI: > 100 µM
NCI/ADR-RES ovarian
  TGI: > 100 µM
HT29 colon
  TGI: > 100 µM

## COc1ccc2c(c1)CCN=C2Cc1ccccc1CCCl
PC-3 prostate
  TGI: > 100 µM
OVCAR-3 ovarian
  TGI: > 100 µM
UO-31 renal
  TGI: 43.9 µM
OVCAR-4 ovarian
  TGI: > 100 µM
786-0 renal
  TGI: > 100 µM
TK-10 renal
  TGI: > 100 µM
A549 NSCLC
  TGI: > 100 µM
HS 578T breast
  TGI: > 100 µM
MDA-MB-435
  TGI: 45.4 µM
SW-620 colon
  TGI: > 100 µM
NCI/ADR-RES ovarian
  TGI: 64.9 µM
SNB-75 CNS
  TGI: > 100 µM
HT29 colon
  TGI: 55 µM

## CC1(C)O[C@H]([C@H](O)c2nnc3ccc(Cl)nn23)[C@@H]([C@H]2COC(C)(C)O2)O1
MALME-3M melanoma
  TGI: > 100 µM
PC-3 prostate
  TGI: > 100 µM
OVCAR-3 ovarian
  TGI: > 100 µM
OVCAR-4 ovarian
  TGI: > 100 µM
786-0 renal
  TGI: > 100 µM
TK-10 renal
  TGI: > 100 µM
A549 NSCLC
  TGI: > 100 µM
HS 578T breast
  TGI: > 100 µM
MDA-MB-435
  TGI: > 100 µM
SW-620 colon
  TGI: > 100 µM
NCI/ADR-RES ovarian
  TGI: > 100 µM
HT29 colon
  TGI: > 100 µM

## O=C(Nc1ccc(Cl)cc1)NS(=O)(=O)c1coc2ccccc2c1=O
MALME-3M melanoma
  TGI: > 10 µM
PC-3 prostate
  TGI: > 10 µM
OVCAR-3 ovarian
  TGI: > 10 µM
OVCAR-4 ovarian
  TGI: > 10 µM
786-0 renal
  TGI: > 10 µM
TK-10 renal
  TGI: > 10 µM
A549 NSCLC
  TGI: > 10 µM
HS 578T breast
  TGI: > 10 µM
MDA-MB-435
  TGI: > 10 µM
SW-620 colon
  TGI: > 10 µM
NCI/ADR-RES ovarian
  TGI: > 10 µM
SNB-75 CNS
  TGI: > 10 µM
HT29 colon
  TGI: > 10 µM

## CN(C)C(=S)N1C(=S)N(c2ccccc2)C(=Nc2ccccc2)C1=Nc1ccccc1
MALME-3M melanoma
  TGI: > 100 µM
PC-3 prostate
  TGI: > 100 µM
UO-31 renal
  TGI: > 100 µM
OVCAR-4 ovarian
  TGI: > 100 µM
786-0 renal
  TGI: > 100 µM
TK-10 renal
  TGI: > 100 µM
A549 NSCLC
  TGI: > 100 µM
HS 578T breast
  TGI: > 100 µM
MDA-MB-435
  TGI: > 100 µM
SW-620 colon
  TGI: > 100 µM
NCI/ADR-RES ovarian
  TGI: > 100 µM
SNB-75 CNS
  TGI: > 100 µM
HT29 colon
  TGI: > 100 µM

## CCOC(=O)CCC(NC(=O)OCc1ccccc1)C(=O)NC(CCC(=O)OCC)C(=O)NC(Cc1ccc([N+](=O)[O-])cc1)C(=O)NC(CCC(=O)OCC)C(=O)NC(CCC(=O)OCC)C(=O)OCC (stereo unspecified) (Cbz-E(OEt)E(OEt)[Phe(4-NO2)]E(OEt)E(OEt)-OEt; configuration not given here)
MALME-3M melanoma
  TGI: > 100 µM
PC-3 prostate
  TGI: > 100 µM
UO-31 renal
  TGI: > 100 µM
OVCAR-4 ovarian
  TGI: > 100 µM
786-0 renal
  TGI: > 100 µM
TK-10 renal
  TGI: > 100 µM
A549 NSCLC
  TGI: > 100 µM
HS 578T breast
  TGI: > 100 µM
MDA-MB-435
  TGI: > 100 µM
SW-620 colon
  TGI: > 100 µM
NCI/ADR-RES ovarian
  TGI: > 100 µM
SNB-75 CNS
  TGI: > 100 µM
HT29 colon
  TGI: > 100 µM

## Cc1ccc2nc(N/N=C/c3ccc(C)s3)cc(C)c2c1
MALME-3M melanoma
  TGI: 32 µM
PC-3 prostate
  TGI: 24.1 µM
OVCAR-3 ovarian
  TGI: 17.4 µM
OVCAR-4 ovarian
  TGI: 24.2 µM
786-0 renal
  TGI: 11.3 µM
TK-10 renal
  TGI: 25.2 µM
A549 NSCLC
  TGI: 21.1 µM
HS 578T breast
  TGI: 39.2 µM
MDA-MB-435
  TGI: 23.1 µM
SW-620 colon
  TGI: 29.4 µM
NCI/ADR-RES ovarian
  TGI: 47.2 µM
HT29 colon
  TGI: 12.4 µM

## CC1(C)C=Cc2c(cc3oc4ccc5c(c4c(=O)c3c2O)C=CC(C)(C)O5)O1
MALME-3M melanoma
  TGI: > 100 µM
PC-3 prostate
  TGI: > 100 µM
OVCAR-3 ovarian
  TGI: > 100 µM
UO-31 renal
  TGI: > 100 µM
OVCAR-4 ovarian
  TGI: > 100 µM
786-0 renal
  TGI: > 100 µM
TK-10 renal
  TGI: > 100 µM
A549 NSCLC
  TGI: > 100 µM
HS 578T breast
  TGI: > 100 µM
MDA-MB-435
  TGI: > 100 µM
SW-620 colon
  TGI: > 100 µM
NCI/ADR-RES ovarian
  TGI: > 100 µM
HT29 colon
  TGI: > 100 µM

## O=C(NO)c1ccc(OCc2cccc(Cl)c2)cc1
PC-3 prostate
  TGI: > 44.1 µM
OVCAR-3 ovarian
  TGI: > 64.1 µM
UO-31 renal
  TGI: 35.6 µM
OVCAR-4 ovarian
  TGI: > 58 µM
786-0 renal
  TGI: 19.1 µM
TK-10 renal
  TGI: 32.3 µM
A549 NSCLC
  TGI: > 63.8 µM
HS 578T breast
  TGI: > 96 µM
MDA-MB-435
  TGI: 44 µM
SW-620 colon
  TGI: > 100 µM
NCI/ADR-RES ovarian
  TGI: > 29.8 µM
SNB-75 CNS
  TGI: > 70.2 µM
HT29 colon
  TGI: 25.6 µM

## O=C(/C=C/c1ccc(O)c(O)c1)OCc1ccccc1
MALME-3M melanoma
  TGI: 80.4 µM
PC-3 prostate
  TGI: 85.1 µM
OVCAR-3 ovarian
  TGI: > 100 µM
UO-31 renal
  TGI: 51.1 µM
OVCAR-4 ovarian
  TGI: 79.2 µM
786-0 renal
  TGI: 84.3 µM
TK-10 renal
  TGI: 54.3 µM
A549 NSCLC
  TGI: 62.1 µM
HS 578T breast
  TGI: > 100 µM
MDA-MB-435
  TGI: 97.3 µM
SW-620 colon
  TGI: > 100 µM
NCI/ADR-RES ovarian
  TGI: 72.2 µM
HT29 colon
  TGI: > 100 µM

## Cc1ccccc1N=CN(C)C
MALME-3M melanoma
  TGI: > 100 µM
PC-3 prostate
  TGI: > 100 µM
OVCAR-3 ovarian
  TGI: 81.2 µM
UO-31 renal
  TGI: > 100 µM
OVCAR-4 ovarian
  TGI: > 100 µM
786-0 renal
  TGI: > 100 µM
TK-10 renal
  TGI: > 100 µM
A549 NSCLC
  TGI: > 100 µM
HS 578T breast
  TGI: > 100 µM
MDA-MB-435
  TGI: > 100 µM
NCI/ADR-RES ovarian
  TGI: > 100 µM
SNB-75 CNS
  TGI: > 100 µM
HT29 colon
  TGI: > 100 µM
